Our source for the IC50 values is ChEMBL document CHEMBL1154731, “Theoretical and structural analysis of the active site of the transcriptional regulators LasR and TraR, using molecular docking methodology for identifying potential analogues of acyl homoserine lactones (AHLs) with anti-quorum sensing activity” (Eur J Med Chem, 2010).

The target in test [1] is T1, Transcriptional activator protein TraR (Agrobacterium tumefaciens, UniProt P33905).
T1 sequence (P33905 whole entry): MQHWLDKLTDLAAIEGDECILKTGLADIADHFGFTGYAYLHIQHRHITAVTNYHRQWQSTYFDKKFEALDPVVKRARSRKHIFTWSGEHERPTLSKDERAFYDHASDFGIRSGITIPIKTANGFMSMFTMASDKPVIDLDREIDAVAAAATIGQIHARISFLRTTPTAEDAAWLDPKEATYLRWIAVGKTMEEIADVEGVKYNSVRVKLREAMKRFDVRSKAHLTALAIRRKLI
The experiment in a line: Inhibition of Agrobacterium tumefaciens TraR.

In test [2] the target is T2, Transcriptional activator protein LasR (Pseudomonas aeruginosa (strain ATCC 15692 / PAO1 / 1C / PRS 101 / LMG12228), UniProt P25084).
T2 sequence (P25084 whole entry): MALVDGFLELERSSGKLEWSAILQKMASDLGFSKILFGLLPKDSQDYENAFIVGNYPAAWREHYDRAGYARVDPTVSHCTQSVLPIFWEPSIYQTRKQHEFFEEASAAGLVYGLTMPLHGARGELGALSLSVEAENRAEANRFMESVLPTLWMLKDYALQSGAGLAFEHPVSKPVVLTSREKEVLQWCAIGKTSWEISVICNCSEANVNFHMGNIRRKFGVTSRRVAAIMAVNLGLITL
The test is described as follows: Inhibition of Pseudomonas aeruginosa LasR.

`O=C(CC(=O)N[C@H]1CCOC1=O)Cc1ccccc1`: the values for the IC50 in test [1] and in test [2] were 0.5 µM and 53.6 µM, respectively.
Taken in the same sequence, the figures for `O=C(CCCc1c[nH]c2ccccc12)N[C@H]1CCOC1=O` were 1.1 µM and 14.8 µM.
With `O=C(CC1C=CCC1)N[C@H]1CCOC1=O` (stereo partly drawn), the results for the IC50 in test [1] and in test [2] were 1 µM and 33.1 µM, respectively.
On the same counts, the results for `CCCCCCC(=O)N[C@H]1CCOC1=O` are 0.13 µM and 51.5 µM.

One may read the IC50 as the concentration needed to halve the response being measured. Low readings indicate inhibition by little substance, high ones a need for much substance.
